# Laboratory results taken from ChEMBL document CHEMBL4351028, “Benzoyl indoles with metabolic stability as reversal agents for ABCG2-mediated multidrug resistance” (Eur J Med Chem, 2019).
# Active and inactive are the calls of the source. The calls are words filed in the database; no cut-off is given here.
# What was measured:
# [1] = Cytotoxicity against HEK293 cells expressing wild type ABCG2-482-R2 assessed as inhibition of cell viability at 5 to 25 uM incubated for 2 hrs by MTT assay relative to control; type: ADME, cell-based; conditions: human, read-out: INH
# [2] = biological target: T1, Broad substrate specificity ATP-binding cassette transporter ABCG2 (Homo sapiens, UniProt Q9UNQ0); experiment: Reversal of ABCG2-mediated multidrug resistance in human NCI-H460/MX20 cells assessed as potentiation of mitoxantrone-induced cytotoxicity by measuring inhibition of cell proliferation pretreated for 2 hrs followed by mitoxantrone addition and measured after 44 hrs by MTT assay; type: cell-based
# T1 sequence (Q9UNQ0 whole entry): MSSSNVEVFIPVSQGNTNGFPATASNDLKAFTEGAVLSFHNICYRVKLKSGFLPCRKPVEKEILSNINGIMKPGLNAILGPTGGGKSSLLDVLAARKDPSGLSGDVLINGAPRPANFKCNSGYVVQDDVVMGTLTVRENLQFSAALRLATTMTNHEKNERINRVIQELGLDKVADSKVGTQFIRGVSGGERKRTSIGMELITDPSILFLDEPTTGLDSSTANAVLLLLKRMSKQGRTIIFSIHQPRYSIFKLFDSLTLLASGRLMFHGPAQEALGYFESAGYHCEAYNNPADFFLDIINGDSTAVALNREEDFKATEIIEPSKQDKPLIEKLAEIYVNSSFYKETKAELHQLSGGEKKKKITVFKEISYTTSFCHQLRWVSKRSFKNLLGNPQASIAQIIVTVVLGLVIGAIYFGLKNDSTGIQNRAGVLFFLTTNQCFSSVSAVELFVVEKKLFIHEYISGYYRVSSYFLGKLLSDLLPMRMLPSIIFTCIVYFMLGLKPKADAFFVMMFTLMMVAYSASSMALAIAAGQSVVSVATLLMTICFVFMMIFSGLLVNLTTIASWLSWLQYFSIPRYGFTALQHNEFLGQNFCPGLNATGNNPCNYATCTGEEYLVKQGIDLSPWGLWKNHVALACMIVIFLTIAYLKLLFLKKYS
# [3] = biological target: T1, Broad substrate specificity ATP-binding cassette transporter ABCG2; experiment: Reversal of ABCG2-mediated multidrug resistance in human NCI-H460/MX20 cells assessed as potentiation of mitoxantrone-induced cytotoxicity by measuring inhibition of cell proliferation at 25 uM pretreated for 2 hrs followed by mitoxantrone addition and measured after 44 hrs by MTT assay (reference value: 24 +/- 3%); type: cell-based
# [4] = Cytotoxicity against human NCI-H460 cells assessed as inhibition of cell viability at 5 to 25 uM incubated for 2 hrs by MTT assay relative to control; type: cell-based; conditions: read-out: INH
# [5] = biological target: T1, Broad substrate specificity ATP-binding cassette transporter ABCG2; experiment: Inhibition of ABCG2-mediated mitoxantrone efflux in human NCI-H460/MX20 cells assessed as increase in accumulation of [3H]MX at 25 uM incubated for 2 hrs followed by [3H]MX addition further incubated for 2 hrs by liquid scintillation counter relative to control; type: cell-based
# ABCG2 = biological target: T2, ABCG2 (Homo sapiens, UniProt Q9UNQ0); experiment: Competitive substrate activity at ABCG2 (unknown origin) expressed in High Five insect cell vesicle membrane assessed as stimulation of ATPase activity at 0.21 uM by PREDEASY ATPase assay relative to control; conditions: High Five insect cell vesicle membranes expressing ABCG2
# T2 sequence (Q9UNQ0 whole entry): T1 sequence (Q9UNQ0 whole entry)
# [6] = Cytotoxicity against HEK293 cells transfected with pcDNA3.1 assessed as inhibition of cell viability at 5 to 25 uM incubated for 2 by MTT assay relative to control; type: cell-based; conditions: human, read-out: INH
# [7] = Cytotoxicity against human S1-M1-80 cells assessed as inhibition of cell viability at 5 to 25 uM incubated for 2 hrs by MTT assay relative to control; type: cell-based; conditions: read-out: INH
# NCI-H460 [8] = experiment: Cytotoxicity against human NCI-H460 cells assessed as inhibition of cell viability incubated for 2 hrs by MTT assay; type: cell-based; conditions: NCI-H460, 2 h, read-out: IC50
# [9] = Cytotoxicity against human NCI-H460/MX20 cells assessed as inhibition of cell viability incubated for 2 hrs by MTT assay; type: cell-based; conditions: NCI-H460/MX20, 2 h
# [10] = Cytotoxicity against human S1 cells assessed as inhibition of cell viability at 5 to 25 uM incubated for 2 hrs by MTT assay relative to control; type: cell-based; conditions: read-out: INH
# [11] = Cytotoxicity against human NCI-H460/MX20 cells assessed as inhibition of cell viability at 5 to 25 uM incubated for 2 hrs by MTT assay relative to control; type: cell-based; conditions: read-out: INH
# NCI-H460 [12] = experiment: Cytotoxicity against human NCI-H460 cells assessed as concentration that causes inhibition of cell viability by <=20% incubated for 24 hrs by MTT assay; type: cell-based; conditions: nci-h460, 24 h
# [13] = biological target: T1, Broad substrate specificity ATP-binding cassette transporter ABCG2; experiment: Reversal of ABCG2-mediated multidrug resistance in human S1-M1-80 cells assessed as potentiation of mitoxantrone-induced cytotoxicity at 25 uM pretreated with compound for 2 hrs followed by mitoxantrone challenge for 44 hrs by MTT assay; type: cell-based
# [14] = biological target: T1, Broad substrate specificity ATP-binding cassette transporter ABCG2; experiment: Reversal of ABCG2 (unknown origin) expressed in HEK293 cells-mediated multidrug resistance assessed as potentiation of mitoxantrone-induced cytotoxicity at 10 to 25 uM pretreated for 2 hrs followed by mitoxantrone addition and measured after 44 hrs by MTT assay; type: cell-based; conditions: hek293, 44 h
# Homo sapiens [15] = species on record: Homo sapiens; experiment: Effect on ABCG2 internalization in human NCI-H460/MX20 cells at 25 uM incubated for 72 hrs by immunofluorescence analysis; type: functional, cell-based
# [16] = Cytotoxicity against human NCI-H460/MX20 cells assessed as concentration that causes inhibition of cell viability by <=20% incubated for 24 hrs by MTT assay; type: cell-based
# [17] = Cytotoxicity against HEK293 cells harbouring ABCG2-482-G2 mutant assessed as inhibition of cell viability at 5 to 25 uM incubated for 2 hrs by MTT assay relative to control; type: ADME, cell-based; conditions: human, read-out: INH
# [18] = Cytotoxicity against HEK293 cells harbouring ABCG2-482-T7 mutant assessed as inhibition of cell viability at 5 to 25 uM incubated for 2 hrs by MTT assay relative to control; type: ADME, cell-based; conditions: human, read-out: INH
# HEK293 [19] = experiment: Reversal of ABCG2 482-T7 mutant (unknown origin) expressed in HEK293 cells-mediated multidrug resistance assessed as potentiation of mitoxantrone-induced cytotoxicity at 10 to 25 uM pretreated for 2 hrs followed by mitoxantrone challenge and measured after 44 hrs by MTT assay; type: cell-based; conditions: Homo sapiens
# [20] = biological target: T1, Broad substrate specificity ATP-binding cassette transporter ABCG2; experiment: Reversal of ABCG2-mediated multidrug resistance in human S1-M1-80 cells assessed as potentiation of doxorubicin-induced cytotoxicity at 25 uM pretreated with compound for 2 hrs followed by doxorubicin challenge for 44 hrs by MTT assay; type: cell-based
# [21] = biological target: T1, Broad substrate specificity ATP-binding cassette transporter ABCG2; experiment: Reversal of ABCG2-mediated multidrug resistance in human NCI-H460/MX20 cells assessed as potentiation of mitoxantrone-induced cytotoxicity at 10 to 25 uM pretreated with compound for 2 hrs followed by mitoxantrone challenge for 44 hrs by MTT assay; type: cell-based
# [22] = biological target: T1, Broad substrate specificity ATP-binding cassette transporter ABCG2; experiment: Reversal of ABCG2-mediated multidrug resistance in human NCI-H460/MX20 cells assessed as potentiation of cisplatin-induced cytotoxicity at 25 uM pretreated for 2 hrs followed by cisplatin addition and measured after 44 hrs by MTT assay; type: cell-based
# HEK293 [23] = experiment: Reversal of ABCG2 482-G2 mutant (unknown oirigin) expressed in HEK293 cells-mediated multidrug resistance assessed as potentiation of mitoxantrone-induced cytotoxicity at 10 to 25 uM pretreated for 2 hrs followed by mitoxantrone addition and measured after 44 hrs by MTT assay; type: cell-based; conditions: Homo sapiens
# Homo sapiens [24] = species on record: Homo sapiens; experiment: Effect on ABCG2 expression in human NCI-H460/MX20 cells at 25 uM incubated up to 72 hrs by Western blot analysis; type: functional, cell-based
# [25] = biological target: T1, Broad substrate specificity ATP-binding cassette transporter ABCG2; experiment: Inhibition of ABCG2-mediated mitoxantrone efflux in human NCI-H460/MX20 cells assessed as increase in accumulation of [3H]MX at 10 uM incubated for 2 hrs followed by [3H]MX addition and measured after 2 hrs by liquid scintillation counter; type: cell-based
# [26] = biological target: T1, Broad substrate specificity ATP-binding cassette transporter ABCG2; experiment: Competitive substrate activity at ABCG2 (unknown origin) expressed in High Five insect cell vesicle membrane assessed as stimulation of ATPase activity by PREDEASY ATPase assay
# [27] = Metabolic stability in human liver microsomes assessed as compound remaining at 100 uM incubated for 1 hr by HPLC analysis; type: ADME, Microsome; conditions: read-out: Stability
# [28] = biological target: T1, Broad substrate specificity ATP-binding cassette transporter ABCG2; experiment: Competitive substrate activity at ABCG2 (unknown origin) expressed in High Five insect cell vesicle membrane assessed as stimulation of ATPase activity up to 40 uM by PREDEASY ATPase assay relative to control
smiles,measurement,setting,value
COc1ccc(C(=O)c2ccc3[nH]cc(C(=O)c4ccc(OC)cc4)c3c2OC)cc1,"cytotoxicity at 2 h, up to 25 µM",[1],< 20%
same,inhibition (INH),[2],Dose-dependent effect
same,inhibition at 25 µM,[3],> 87%
same,"cytotoxicity at 2 h, up to 25 µM",[4],< 20%
same,fold change (FC),[5],3
same,Emax at 0.21 µM,ABCG2,50%
same,cytotoxicity at up to 25 µM,[6],< 20%
same,"cytotoxicity at 2 h, up to 25 µM",[7],< 20%
same,IC50,NCI-H460 [8],> 100 µM
same,IC50,[9],> 100 µM
same,"cytotoxicity at 2 h, up to 25 µM",[10],< 20%
same,"cytotoxicity at 2 h, up to 25 µM",[11],< 20%
same,Activity,NCI-H460 [12],25 µM
same,Activity,[13],Active
same,Activity,[14],Active
same,Activity,Homo sapiens [15],inactive
same,Activity,[16],25 µM
same,"cytotoxicity at 2 h, up to 25 µM",[17],< 20%
same,"cytotoxicity at 2 h, up to 25 µM",[18],< 20%
same,Activity,HEK293 [19],Active
same,Activity,[20],Active
same,Activity,[21],Active
same,Activity,[22],Not Active
same,Activity,HEK293 [23],Active
same,Activity,Homo sapiens [24],inactive
same,Activity,[25],Active
same,Activity,[26],Dose-dependent effect
same,"remaining at 1 h, 100 µM",[27],56%
same,fold change (FC),[28],3.01
